Source: PMC12040169 (PLOS Biology, 2025)

experiment: in vitro; settings: human, hela cells, % viability

Compound | viability at 28.5 h, 10 µM
Cc1ccc(C)c(NC(=O)CCc2c(C)nn3cnnc3c2C)c1 [CBK304358] | 90%
COCC1(C(=O)N2CCN(c3ccccc3C#N)CC2)CCC1 [CBK304361] | 93%
CC(C)n1ccc2cc(C(=O)NC3CCOC(C)(C)C3)ccc21 (stereo not drawn) [CBK304366] | 90.6%
COc1ccnc(N2CCN(C(=O)c3ccncc3Cl)CC2)n1 [CBK304367] | 102%
COCCN(CC1CC1)C(=O)NCc1cccc(Cl)c1 [CBK304368] | 93.4%
O=C1CN(C(=O)c2cc(-c3ccncc3)nc3ccccc23)CCN1 [CBK304370] | 104%
CCCOC(=O)Cn1cnc2sc(C)c(C)c2c1=O [CBK304371] | 88.9%
COc1ccc(C(=O)N2CCN(c3ncnc4onc(C)c34)CC2)cc1 [CBK304372] | 93.5%
OCC1COCCN(c2ncnc3c2CCC3)C1 (stereo not drawn) [CBK304373] | 103%
Cc1ccc2cc(C(=O)N3CCCCC3CN3CCOCC3)[nH]c2c1 (stereo not drawn) [CBK304374] | 90.4%
O=C(c1cc(S(=O)(=O)N2CCOCC2)ccc1Cl)N1CCCCC1 [CBK304377] | 94.1%
COc1ccnc(Cn2ncc(N3CCCC3)cc2=O)c1 [CBK304379] | 87.5%
O=C(NCCn1cccn1)N1CCC(Cc2ccc(F)cc2)CC1 [CBK304381] | 91.7%
CCn1c(C)nnc1SCC(=O)Nc1cc(C(F)(F)F)ccc1Cl [CBK304382] | 91.7%
COCCN1CC(CNC(=O)c2cccc(F)c2O)CC1=O (stereo not drawn) [CBK304386] | 107%
O=C(NCC(c1ccco1)N1CCCC1)N1CCc2ccccc2C1 (stereo not drawn) [CBK304392] | 98.8%
Cn1cc(NC(=O)C2CCCN(c3ncccn3)C2)cn1 (stereo not drawn) [CBK304394] | 108%
CC(=O)c1cccc(NC(=O)Cn2ncc(N3CCCC3)c(Cl)c2=O)c1 [CBK304395] | 89.5%
Cc1cnn(C)c1CN1CCC(C(N)=O)(N2CCCCC2)CC1 [CBK304400] | 89.4%
CNC(=O)c1cc(NC(=O)NCC2CC(=O)N(CCOC)C2)ccc1F (stereo not drawn) [CBK304403] | 107%
CCOC(=O)C1CCCN(c2c(C#N)cnc3ccc(Cl)cc23)C1 (stereo not drawn) [CBK304405] | 85.8%
Cc1cc(C)n2nc(CC(=O)N3CCCC3c3ccccn3)nc2n1 (stereo not drawn) [CBK304408] | 90.8%
CCC(CC)C(=O)N1CCn2c(nnc2-c2cncc(Br)c2)C1 [CBK304409] | 96.1%
CC(=O)N1CCc2c(sc(NC(=O)c3ccc(C)cc3)c2C#N)C1 [CBK304411] | 52.6%

Compound | viability at 28.5 h, 10 µM
CCOC(=O)C1CCCN(Cc2ccc(OC)cc2)C1 (stereo not drawn) [CBK304413] | 88.3%
Cc1cc(C)n(CCCC(=O)NCCc2cn3ccccc3n2)n1 [CBK304414] | 94.6%
N#Cc1cccnc1N1CC(C(=O)O)C2(CCC2)C1 (stereo not drawn) [CBK304415] | 93.7%
CSCCC(NC(=O)NCCc1ccccc1)c1nnc2ccccn12 (stereo not drawn) [CBK304417] | 102%
CCNC(=O)N1CCC(NS(=O)(=O)c2cnc3ccccc3c2)C1 (stereo not drawn) [CBK304419] | 85.3%
Cc1c(C(=O)N2CCCCC2C(N)=O)nnn1Cc1ccc(F)cc1F (stereo not drawn) [CBK304425] | 93.7%
Cc1csc2c(N3CCCC3CC(=O)c3cnn(C)c3)ncnc12 (stereo not drawn) [CBK304429] | 81.8%
CCOc1cc(NC2CCN(C(=O)C(C)(C)C3CCCC3)CC2)ncn1 [CBK304430] | 91.2%
Cc1ccc(Cc2cnc(NC(=O)NC3CCOCC3)s2)cc1Cl [CBK304440] | 82.2%
CC1CCc2c(C(=O)N3CC(C)OC(C)C3)csc2C1 (stereo not drawn) [CBK304442] | 106%
CC(C)c1csc(CNC(=O)NC2CCCN(c3ccn(C)n3)C2=O)n1 (stereo not drawn) [CBK304447] | 83.6%
Cc1cc(C)n(CCN2CCC(N(C)Cc3nnc(C)n3C)C2)n1 (stereo not drawn) [CBK304449] | 94.3%
Cc1nnc(CN(C)C2CCN(Cc3ccc4c(c3)CCC4)C2)n1C (stereo not drawn) [CBK304450] | 104%
Cc1nc(-c2cc3c(s2)CCN(CC(O)Cn2cccn2)C3)cs1 (stereo not drawn) [CBK304458] | 102%
COc1csc(C(=O)Nc2ncn(CC(=O)N3CCCCCC3)n2)c1 [CBK304463] | 84.6%
CCCn1c(C)nnc1CN(CC1CCCO1)C1CCCC1 (stereo not drawn) [CBK304465] | 94.8%
Cc1cc(NC(=O)C(C)N(C)CCOc2ccccc2Cl)no1 (stereo not drawn) [CBK304466] | 107%
CC(=O)c1cccc(NC(=O)N(Cc2ccco2)CC2CCCO2)c1 (stereo not drawn) [CBK304467] | 104%
CN(CC(=O)NCc1ccco1)C1CCCCC1 [CBK304471] | 85.6%
CCc1nnc(CN(CC2CCCO2)C2CCC(C)CC2)n1C (stereo not drawn) [CBK304475] | 106%
CNCC1CCCN(C(=O)c2ccc(Oc3cccnc3)cc2)C1 (stereo not drawn) [CBK304479] | 83.2%
Cc1ccc(CCC(=O)N2CCNCC2C)c(C)c1 (stereo not drawn) [CBK304481] | 90%
Cc1c(C(=O)N2CCC(F)(CO)C2)nnn1-c1ccc2ncccc2c1 (stereo not drawn) [CBK304483] | 101%
Cc1c(C(=O)N(C)Cc2csc(Br)c2)nnn1C1CCNCC1 [CBK304491] | 104%

Compound | viability at 28.5 h, 10 µM
COc1ccc(C)cc1C1(CNC(=O)C2CC2C(=O)O)CCOCC1 (stereo not drawn) [CBK304492] | 82%
Cn1ccc(CN2CCOC(c3nc(C(C)(C)C)n[nH]3)C2)cc1=O (stereo not drawn) [CBK304495] | 84.5%
CC(C)Oc1ccc(C(=O)N2CC(C)C(N3CCOCC3)C2)cn1 (stereo not drawn) [CBK304497] | 110%
CCc1nsc(N2CCC(Oc3cccnc3N(C)C)C2)n1 (stereo not drawn) [CBK304498] | 110%
Cc1cc(S(=O)(=O)NC(=O)CC2CCOc3ccccc32)c(C)o1 (stereo not drawn) [CBK304499] | 105%
CNCC1CCCN1S(=O)(=O)c1ccc(OCc2ncnn2C)cc1 (stereo not drawn) [CBK304500] | 90%
CCn1cc(NC(=O)CC(C)(O)c2ccccc2)ccc1=O (stereo not drawn) [CBK304507] | 91.7%
CCc1nn(C)cc1CN1CCOC(c2nc(C(C)(C)C)cs2)C1 (stereo not drawn) [CBK304513] | 104%
CCOC(=O)C1CCCN(C(=O)CCn2c(=O)oc3cc(Cl)ccc32)C1 (stereo not drawn) [CBK304516] | 93.8%
NC(=O)C1CCN(C(=O)Cc2csc(COc3ccc(Cl)cc3)n2)CC1 [CBK304519] | 81.9%
Cc1cc(NC(=O)CS(=O)(=O)Cc2cccc(C(F)(F)F)c2)no1 [CBK304520] | 99.3%
CC(C)(C)OC(=O)N1CCCC(C(=O)Nc2ccccn2)C1 (stereo not drawn) [CBK304524] | 95.4%
CC(C)(C)c1cc(NC(=O)CN2CCN(c3cccc(Cl)c3)CC2)on1 [CBK304525] | 85.7%
CCOc1ncccc1C(=O)NCc1ccc(COCC(F)(F)F)cc1 [CBK304526] | 97.8%
CCOc1ccc(CN2CCN(C(=O)c3cccc(C#N)c3)CC2)cc1 [CBK304527] | 93.5%
Cc1ccnc2nc(C(=O)OC(C)C(=O)c3ccc4c(c3)CCC4)nn12 (stereo not drawn) [CBK304528] | 89.5%
COc1ccccc1-c1cnn2c(NCC3CCCO3)cc(C)nc12 (stereo not drawn) [CBK304529] | 84.5%
COc1ccccc1-c1cc2nc(C)cc(N3CCOCC3)n2n1 [CBK304532] | 88.7%
O=C(CCSCc1nc2sc3c(c2c(=O)[nH]1)CCC3)N1CCC1 [CBK304536] | 75.7%
COC(=O)CC(NC(=O)c1cccc(NC(C)=O)c1)c1cccs1 (stereo not drawn) [CBK304537] | 78%
CC(=O)Nc1ccc(CNC(=O)c2ccc[nH]2)cc1 [CBK304538] | 87.1%
CCCCN(CC(N)=O)C(=O)c1sc(COc2ccc(Cl)cc2)nc1C [CBK304539] | 101%
Cc1nc(Cc2nc(-c3ccc4c(c3)CCCN4S(C)(=O)=O)cs2)cs1 [CBK304542] | 97.3%
CCCCN(C)S(=O)(=O)NCCc1cn2ccccc2n1 [CBK304543] | 101%

Compound | viability at 28.5 h, 10 µM
CC(N(C)S(=O)(=O)c1ccc(-n2ncc(Cl)c(Cl)c2=O)cc1)C(C)(C)C (stereo not drawn) [CBK304544] | 73.9%
NC(=O)NC(CC(=O)N1CCN(c2nccs2)CC1)c1cccc(Br)c1 (stereo not drawn) [CBK304548] | 90.6%
CC(=O)Nc1ccc(OCC(O)Cn2c(CO)nc3ccccc32)cc1 (stereo not drawn) [CBK304549] | 81.3%
CCOC(=O)C1CSCCN1C(=O)c1cnn(-c2ccc(Br)cc2)c1C (stereo not drawn) [CBK304550] | 102%
CCOC(=O)Cc1csc(SC(C)C(=O)N2CCNC2=O)n1 (stereo not drawn) [CBK304551] | 106%
O=C(NCCNc1cnccn1)c1cc(F)cc(Br)c1 [CBK304554] | 99.6%
CCOC(=O)C1CCN(c2cccc(F)c2C#N)CC1 [CBK304558] | 101%
O=C(NCC(c1ccco1)N1CCCC1)C1CCCCC1 (stereo not drawn) [CBK304560] | 88.7%
Cc1sc2ncn(CC(=O)NC3CCOc4ccccc43)c(=O)c2c1C (stereo not drawn) [CBK304562] | 86.3%
CC(C)(C)CC(NC(=O)C1CCCN(S(C)(=O)=O)C1)c1ccccc1 (stereo not drawn) [CBK304563] | 90.6%
Cc1ccccc1CC(=O)NCC(c1ccccc1Cl)N1CCOCC1 (stereo not drawn) [CBK304564] | 85.3%
O=C(Cn1ccc(=O)[nH]c1=O)NCc1cccnc1OCC(F)(F)F [CBK304565] | 90.5%
N#CC1(NC(=O)c2ccn(-c3cccc(F)c3)n2)CCSC1 (stereo not drawn) [CBK304566] | 106%
COc1ccc(CCNC(=O)CN2CCCC2Cn2cncn2)cc1 (stereo not drawn) [CBK304567] | 115%
COc1cc(C(=O)Nc2ncccc2OCCCC#N)ccc1C [CBK304568] | 85.7%
COc1cc(C)nc(N2CCN(C(=O)CCc3ccsc3)CC2)n1 [CBK304572] | 87.6%
Cc1ccc(N2CCCN(C(=O)CCc3ccsc3)CC2)nn1 [CBK304573] | 91.1%
O=C(O)c1ccc(Cl)c(S(=O)(=O)NCc2ccco2)c1 [CBK304575] | 105%
Nc1cc(=O)[nH]c(SCC(=O)N2CCCc3ccccc32)n1 [CBK304576] | 94.1%
O=C(c1cc(S(=O)(=O)N2CCOCC2)ccc1Cl)N1CCCCC1CO (stereo not drawn) [CBK304579] | 88.6%
CN(C(=O)c1cc(S(=O)(=O)N2CCOCC2)ccc1F)C1CCCCC1 [CBK304580] | 114%
